Test results from US7442380B2, “Treatment of diseases caused by viral infection” (Apodemus AB, priority 2003, dated 2008).

Assays:
[1] = test system: Ljungan virus; experiment: Ljungan virus in tissue culture of Vero cells with Pleconaril (CPE); format: cell-based
Source text: (§1) Ljungan virus was first tested in tissue culture of Vero cells in combination with Pleconaril. 1,6 micrograms of active substance per ml of the tissue culture medium were used. This dose was used in all experiment below where it says “with Pleconaril”.
10 000 000 tissue culture infectious doses (TCID) of Ljungan virus treated with Pleconaril give full cytopathogenic effect (CPE) in 4 days while the control culture with no Pleconaril show full CPE in 3 days.
(§2) For a control picornavirus known not to be sensitive to Pleconaril no inhibition of any amount of the virus can be detected. […] This means that Ljungan virus is semi-sensitive” or “semi-resistant” to Pleconaril.

[2] = test system: control picornavirus known not to be sensitive to Pleconaril; experiment: Tissue culture with Pleconaril, control picornavirus known not to be sensitive; format: cell-based; settings: any amount of the virus, 1,6 micrograms Pleconaril per ml
Source text: as §1, §2

[3] = test system: picornavirus known to be sensitive to Pleconaril; experiment: Tissue culture with Pleconaril, picornavirus known to be sensitive; format: cell-based; settings: 10 000 000 TCID, 1,6 micrograms Pleconaril per ml
Source text: as §1, §2

[4] = test system: Bank voles with diabetes; experiment: Diabetic bank voles, oral Pleconaril, glucose tolerance test; format: in vivo; settings: 100 mg/kg per day for seven days orally in drinking water; GTT 60 min, day before treatment vs 15 days later; none of six control animals
Description: Bank voles with diabetes were randomised into 2 groups one treated with Pleconaril and one not receiving any treatment. Treated animals were given 100 mg Pleconaril per kg body weight per day seven days. The drug was administered orally in the drinking water. All animals were subjected to a glucose tolerance test the day before the treatment and again 15 days later. Glucose tolerance test was performed by administrating 2 grams of glucose per kg BW intraperitoneally. The blood glucose levels were measured after 60 min.

[5] = test system: arctic fox with severe encephalitis (Ljungan virus); experiment: Encephalitis in arctic fox treated with Pleconaril; format: in vivo; settings: one arctic fox, 50 mg/kg twice daily for 7 days
Source text: The arctic fox in Sweden is a species close to being extinct. The reason for this is unknown. Nordens Ark has a breeding program for arctic foxes with the aim to save the species. However, several animals in captivity have developed encephalitis and died. Nordens Ark has lost almost all their animals. The encephalitis is a slow progressing disease often starting with stereotypic behaviour followed by visual problem, loss of smell and loss of muscle coordination. The condition is slowly progressing over several months leading to the deaths of the animal. No spontaneous recovery has been seen in any of the arctic foxes observed.
Ljungan virus was isolated from the brain of one arctic fox suffering from encephalitis. Ljungan virus RNA was also detected by PCR in the brain and the heart of the same individual. Ljungan virus could also be detected in the brain and the heart by immunohistochemistry.
One arctic fox with severe encephalitis was treated with 50 mg/kg of Pleconaril twice daily for 7 days.

[6] = test system: Ljungan virus (LV145 SL); experiment: Antiviral therapy of diabetes in male offspring of Ljungan virus infected laboratory mice; format: in vivo, CD1 mice; settings: for frequency of animals with diabetes, as measured by GTT: vs infected untreated mice
Description: Glucose tolerance test was performed to determine the diagnosis of diabetes. In this test 2 g glucose per kg body weight was administrated intraperitoneally (as 100 mg glucose/ml solution). Blood glucose was measured (Medisence Precision PCx Abbott Laboratories) just before the glucose injection and at 60 and 120 minutes post administration. Diabetes was defined as a blood glucose level above 200 mg/dL in a glucose tolerance test at 120 min.
Abdominal fat in male mice was measured by dissecting out the bilateral scrotal fat cushion. The total weight of both fat cushions was used.
The serum insulin level was measured using a rat insulin high range ELISA kit (Mercodia AB, Uppsala, Sweden) according to the instructions of the manufacturer. Islets prepared from the pancreas were assayed for insulin release and glucose oxidation assay described elsewhere (Blixt, M., Niklasson, B. & Sandler, S. Characterization of β-cell function of pancreatic islets isolated from bank voles developing glucose intolerance/diabetes: an animal model showing features of both type 1 and type 2 diabetes mellitus. Manuscript submitted).
Pregnant outbred CD1 mice (CD-1 (ICR) Br Charles River laboratories, Germany) were infected intraperitoneally with 1000 ID50 units of LV145 SL two days after conception. Control animals were given an injection with the same volume with normal saline at the same time. All female mice were kept in individual cages and followed for the development of gestational diabetes, pregnancy outcome and development of diabetes in the offspring. In half of the infected pregnant mice, mild stress was induced by adding glucose (100 g/liter) to drinking water, performing weekly weights and glucose tolerance testing during the last week of pregnancy. The uninfected control group of pregnant mice was also subjected to stress. Antiviral therapy using LV-specific murine antisera or the oral antiviral compound Pleconaril (200 mg per kg body weight) administrated once a day for 4 consecutive days or a combination of antiserum and Pleconaril was initiated at 5 weeks of age (11-13). At 15 weeks animals were tested by a glucose tolerance test (GTT). Also, serum insulin level and abdominal fat were measured and the histopathology of the pancreas was examined.
Antiviral therapy using LV-specific murine antisera (group IV) or the oral antiviral compound Pleconaril (200 mg per kg body weight) administrated once a day for 4 consecutive days (group III) or a combination of antiserum and Pleconaril (group V) was initiated at 5 weeks of age.
Mice were treated with a combination of Pleconaril and antisera and interferon α. Interferon a was given as 2×10^7 IU/kg/day during three consecutive days during the same week Pleconaril and specific immunoglobulin was administrated. […] In addition, the combination therapy (Pleconaril, antisera, and interferon) normalize the amount of abdominal fat and the level of serum insulin, reducing them to normal levels.

For `Cc1cc(CCCOc2c(C)cc(-c3noc(C(F)(F)F)n3)cc2C)on1` [Pleconaril, 3-[3,5-dimethyl-4-[[3-(3-methyl-5-isoxazolyl)propyl]oxy]phenyl]-5-(trifluoromethyl)-1,2,4-oxadiazole], the “time to full cytopathogenic effect (CPE)” value ([1]; 10 000 000 TCID of Ljungan virus, Vero cells, 1,6 micrograms Pleconaril per ml, control culture without Pleconaril full CPE in 3 days) was 4 days, the “inhibition of Ljungan virus” value ([1]; 100 TCID of Ljungan virus, Vero cells, 1,6 micrograms Pleconaril per ml) was “fully inhibited” and the “sensitivity of Ljungan virus to Pleconaril (conclusion)” value ([1]; Vero cells, 1,6 micrograms per ml) was “semi-sensitive”. For the same compound, the “inhibition of control picornavirus” value [2] was “no inhibition”, the “inhibition of sensitive picornavirus (CPE)” value [3] was “inhibited (no CPE)” and the “animals improved with blood glucose levels decreasing more than 200 mg per dl” value [4] was 2 out of six. The “clinical condition after the treatment” value [5] was “improved”, the “course after several months” value [5] was “signs and symptoms of encephalitis came back” and the “No. with blood glucose > 200 md/dL at 120 min” value ([6]; Table 2, GTT at 15 weeks, therapy started at 5 weeks, number of mice, infected no treatment 8 of 11) was 1. For the same compound, the “No. with blood glucose > 200 md/dL at 120 min (percent)” value ([6]; Table 2, GTT at 15 weeks, infected no treatment 73%) was 9%, the “Blood glucose at 60 min” value ([6]; Table 2, GTT at 15 weeks, infected no treatment 242) was 211 and the Serum insulin ([6]; Table 2, at 15 weeks, infected no treatment 5.04) was 4.15 µg/L. The “Abdominal fat in gram” value ([6]; Table 2, male mice at 15 weeks, infected no treatment 2.9) was 2.1 gram, the “No. Hyperglycemic” value ([6]; Table 7, infected mice, number of mice, no treatment 8 of 11) was 1 and the “No. Hyperglycemic (percent)” value ([6]; Table 7, infected mice, no treatment 73%) was 9%. The Abdominal fat ([6]; Table 7, infected mice, spread in brackets, no treatment 2.90 (0.84)) was 2.20 (1.0) g, the Serum insulin ([6]; Table 7, infected mice, spread in brackets, no treatment 5.04 (2.30)) was 4.15 (5.03) μg/L and the “Blood glucose @ 60 minutes” value ([6]; Table 7, infected mice, spread in brackets, no treatment 242 (75)) was 211 (79) mg/dL. For the same compound, the “frequency of animals with diabetes, as measured by GTT” value [6] was “reduced the frequency of animals with diabetes” and the “frequency of animals with diabetes, as measured by GTT” value ([6]; listed as Pleconaril alone) was “reduced the frequency of diabetes”.
